Measured values as given in US10968172B2, “USP30 inhibitors” (Mitobridge, Inc., priority 2017, dated 2021).

Molecular target: USP30 (Homo sapiens (Human), UniProt Q70CQ3)
Assay: In vitro biochemical assay for USP30 enzyme (Ubiquitin-Rhodamine110 cleavage, fluorescence)
Conditions: 20 nM USP30, 15 min pre-incubation, 100 nM Ub rhodamine substrate, 2 hrs at room temperature

Sequence of USP30 (Q70CQ3 whole entry): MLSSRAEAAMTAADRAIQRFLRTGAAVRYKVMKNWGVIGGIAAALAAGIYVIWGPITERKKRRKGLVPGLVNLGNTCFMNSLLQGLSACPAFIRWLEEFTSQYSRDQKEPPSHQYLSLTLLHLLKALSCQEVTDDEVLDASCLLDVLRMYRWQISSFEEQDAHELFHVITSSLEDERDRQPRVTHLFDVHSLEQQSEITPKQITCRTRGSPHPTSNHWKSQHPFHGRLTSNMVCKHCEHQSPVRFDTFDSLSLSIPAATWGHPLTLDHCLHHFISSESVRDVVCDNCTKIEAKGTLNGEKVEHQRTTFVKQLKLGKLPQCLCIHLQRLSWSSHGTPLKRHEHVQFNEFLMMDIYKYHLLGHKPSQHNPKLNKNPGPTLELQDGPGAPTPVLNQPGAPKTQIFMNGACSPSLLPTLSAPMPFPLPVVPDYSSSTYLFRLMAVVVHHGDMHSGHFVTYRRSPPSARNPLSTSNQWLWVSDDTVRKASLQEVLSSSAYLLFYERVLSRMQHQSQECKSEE

Row | IC50 | SMILES
1 | > 10 µM | COc1ccc(C[C@H](NC(=O)c2cscn2)C(=O)Nc2ccc(S(=O)(=O)NC(C)(C)C)cc2)cc1 [Compound 19x, (S)-N-(1-((4-(N-(tert-butyl)sulfamoyl)phenyl)amino)-3-(4-methoxyphenyl)-1-oxopropan-2-yl)thiazole-4-carboxamide]
2 | 0.02 µM | CC(C)(C)NS(=O)(=O)c1ccc(NC(=O)[C@H](Cc2ccncc2)NC(=O)c2ccc(F)cc2)cc1 [Compound 19y, (S)-N-(1-((4-(N-(tert-butyl)sulfamoyl)phenyl)amino)-1-oxo-3-(pyridin-4-yl)propan-2-yl)-4-fluorobenzamide]
3 | > 10 µM | COc1ccc(C[C@H](NC(=O)c2cocn2)C(=O)Nc2ccc(S(=O)(=O)NC(C)(C)C)cc2)cc1 [Compound 19z, (S)-N-(1-((4-(N-(tert-butyl)sulfamoyl)phenyl)amino)-3-(4-methoxyphenyl)-1-oxopropan-2-yl)oxazole-4-carboxamide]
